Laboratory results taken from patent publication US20230233425A1, “USE OF VOLATILE COMPOSITIONS TO LIMIT OR ELIMINATE THE PERCEPTION OF MALODOR” (Firmenich SA, priority 2017, published 2023).
“And” between values parts separate entries of the source, which are not always exact repeats. Equal values may be shown once.

Legend:
[1] = system: 1-octen-3-ol receptors OR2W1, Olfr93, Olfr120, Olfr398; test: Antagonists of 1-octen-3-ol receptors (Example 11); type: cell-based, mouse and human; design: Inhibition(%): concentration or dose not given beside the values; conditions: Table 19
[2] = system: geonol receptors Olfr339, Olfr1487, Olfr1A1, OR11A1, Olfr96; test: Antagonists of geonol receptors (Example 11); type: cell-based, mouse and human; design: Inhibition(%): concentration or dose not given beside the values; conditions: Table 18
[3] = system: geonol earthy/moss odor perception; test: Human sensory performance of test compounds with and without geonol; type: in vivo; conditions: for % Earthy/Moss Odor: Test Compound Only
Source text: Sensory Evaluation: Five 16 oz glass jars containing either REF (geonol only), geonol only control, antagonist only, mixture of geonol and isointense antagonist, or mixture of geonol and low intensity antagonist were presented to the panelists (last four samples were randomized across panelists). The panelists were asked to familiarize themselves with the earthy/moss odor quality from the REF jar first, then rate the pleasantness, earthy/moss odor intensity and overall odor intensity of the next four samples on a 0-10 linear scale. The inter-stimulus interval between the samples was two minutes to avoid adaptation. […]
The results are shown in Tables 16 and 17, and FIGS. 3 to 5.

[4] = target: T1, OR51E1 olfactory receptor (Homo sapiens, UniProt Q8TCB6); test: Butyric acid olfactory receptor antagonist cell-based dose-response vs butyric acid EC80; conditions: butyric acid at EC80; Table 5
T1 construct: expressed in transfected cells
T1 sequence (Q8TCB6 1-318): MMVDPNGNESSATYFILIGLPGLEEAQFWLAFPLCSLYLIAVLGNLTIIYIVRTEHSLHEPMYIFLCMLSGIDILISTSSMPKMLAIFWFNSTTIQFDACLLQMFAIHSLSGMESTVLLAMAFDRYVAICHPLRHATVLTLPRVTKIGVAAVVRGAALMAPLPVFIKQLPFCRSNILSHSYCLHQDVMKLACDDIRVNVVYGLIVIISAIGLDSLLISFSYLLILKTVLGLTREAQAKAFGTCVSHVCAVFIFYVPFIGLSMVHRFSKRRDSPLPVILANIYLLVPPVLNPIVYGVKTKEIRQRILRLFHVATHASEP

[5] = Low Dilution Test Compound + Geonol (0.1%)
[6] = Medium Dilution Test Compound + Geonol (0.1%)

CC(=O)OC1(C)CCC23CC1C(C)(C)C2CCC3C (centres unmarked)
IC50 [1]: 72.6 µM
Inhibition(%) [1]: 52%

CC(=O)/C(C)=C/C1C(C)=CCCC1(C)C (centres unmarked)
IC50 [2]: 1120 µM
Inhibition(%) [2]: 58%

CC1C2CC(CC13C=CC(=O)CC3)C2(C)C (centres unmarked)
IC50 [1]: 12.5 µM
Inhibition(%) [1]: 87%
IC50 [2]: 42.4 µM
Inhibition(%) [2]: 27%

CC(=O)c1c(C)c([N+](=O)[O-])c(C(C)(C)C)c([N+](=O)[O-])c1C
IC50 [1]: 84.7 µM
Inhibition(%) [1]: 98%

C=CC(C)(CCC=C(C)C)OC(=O)C(C)C (centres unmarked) [3,7-dimethylocta-1,6-dien-3-yl 2-methylpropanoate]
IC50 [1]: 57.1 µM
Inhibition(%) [1]: 88%

CC(=O)OC(C)(C)Cc1ccccc1 [(2-methyl-1-phenylpropan-2-yl) acetate]
% Earthy/Moss Odor [3]: 34.00%
IC50 [2]: 386 µM
Inhibition(%) [2]: 54%

CCC(=CCC1CC=C(C)C1(C)C)CO (centres unmarked) [2-ethyl-4-(2,2,3-trimethylcyclopent-3-en-1-yl)but-2-en-1-ol]
IC50 [2]: 173 µM
Inhibition(%) [2]: 35%

CCC1=CCCC(C)(C)[C@@]12C=C[C@@H](C)O2
IC50 [2]: 127 µM
Inhibition(%) [2]: 47%

1-(2,2-dimethyl-6-methylidenecyclohexyl)pent-1-en-3-one; 3-methyl-4-(2,6,6-trimethylcyclohex-2-en-1-yl)but-3-en-2-one; 1-(2,6,6-trimethylcyclohexen-1-yl)pent-1-en-3-one; 1-(2,6,6-trimethylcyclohex-2-en-1-yl)pent-1-en-3-one
IC50 [1]: 66.8 µM
Inhibition(%) [1]: 56%
IC50 [2]: 136 µM
Inhibition(%) [2]: 49%

CCC(=CCC1CC=C(C)C1(C)C)CO (centres unmarked) [2-ethyl-4-[1~{S})-2,2,3-trimethylcyclopent-3-en-1-yl]but-2-e]
IC50 [2]: 44.6 µM
Inhibition(%) [2]: 19%

c1ccc(CCCc2ccccn2)cc1 [2-(3-phenylpropyl)pyridine]
IC50 [1]: 153 µM
Inhibition(%) [1]: 31%
IC50 [2]: 41 µM
Inhibition(%) [2]: 196%

CC1(CO)CC1CC1CC2CC2(C)C1(C)C (centres unmarked)
IC50 [2]: 21.3 µM
Inhibition(%) [2]: 34%

CC1COCc2cc3c(cc21)C(C)(C)C(C)C3(C)C (centres unmarked)
IC50 [1]: 65.2 µM
Inhibition(%) [1]: 84%
IC50 [2]: 894 µM
Inhibition(%) [2]: 56%

CC1CCC2C(C)(C)C3CC12CC1OC13C (centres unmarked)
IC50 [1]: 85.6 µM
Inhibition(%) [1]: 91%

COC(=O)CCCCCCCC/C=C/C=O [methyl (10E)-12-oxo-10-dodecenoate]
Inhibition(%) [2]: 86%

COC(=O)c1ccccc1NC=CC(C)CCCC(C)(C)O (centres unmarked) [methyl 2-[(7-hydroxy-3,7-dimethyloct-1-enyl)amino]benzoate]
IC50 [2]: 213 µM
Inhibition(%) [2]: 103%

CCC(O)COC1CCCCC1C(C)(C)C (centres unmarked)
IC50 [1]: 53.6 µM
Inhibition(%) [1]: 13%

CC=CC(=O)C1=C(C)CCCC1(C)C [1-(2,6,6-trimethylcyclohexen-1-yl)but-2-en-1-one]
IC50 [1]: 477 µM
Inhibition(%) [1]: 72%

C[C@@H]1CC[C@]2(O)C(C)(C)[C@H]3CC[C@@]2(C)[C@@H]1C3
% Earthy/Moss Odor Remaining [3, 5]: 104.60%
% Earthy/Moss Odor Remaining [3, 6]: 129.80%
% Earthy/Moss Odor [3]: 94.10%

CC(=O)O[C@@H]1C(C)(C)CCC[C@@]12CC=C(C)C[C@@H]2C
IC50 [4]: 37.7 µM
IC50 [2]: 267 µM
Inhibition(%) [2]: 38%

CCCCC[C@H]1CCC[C@H]1O [(1~{R},2~{S})-2-pentylcyclopentan-1-ol]
IC50 [2]: 195 µM and 147 µM

Cc1cc2c(cc1C=O)C(C)(C)[C@H](C)[C@@H](C)C2(C)C
IC50 [1]: 83.7 µM
Inhibition(%) [1]: 64%

CC1=CCC2C(C1)C1CC2C2(C1)OC2C (centres unmarked)
IC50 [2]: 281 µM
Inhibition(%) [2]: 45%

CC(CCO)CCc1ccccc1 (centres unmarked) [Compound 3-methyl-5-phenylpentan-1-ol, 3-methyl-5-phenylpentan-1-ol]
% Earthy/Moss Odor [3]: 11.30%

CCCCCCCC1CCCC(=O)O1 (centres unmarked) [6-heptyloxan-2-one]
IC50 [2]: 197 µM
Inhibition(%) [2]: 29%

CC(=O)O[C@H]1CCCC[C@@H]1C(C)(C)C
% Earthy/Moss Odor [3]: 15.30%
IC50 [2]: 164 µM
Inhibition(%) [2]: 56%

C[C@@H]1CC=CCCCCCCCCCC(=O)C1 [(3~{R})-3-methylcyclopentadec-5-en-1-one]
IC50 [1]: 23.4 µM
Inhibition(%) [1]: 79%
IC50 [4]: 53.7 µM

CC(C)COC(=O)Cc1ccccc1 [2-methylpropyl 2-phenylacetate]
IC50 [2]: 141 µM
Inhibition(%) [2]: 45%

CC1=CCC(CCC(C)C(C)O)C1(C)C (centres unmarked) [3-methyl-5-(2,2,3-trimethylcyclopent-3-en-1-yl)pentan-2-ol]
IC50 [2]: 28.8 µM
Inhibition(%) [2]: 32%

CCCOC(C)OCCc1ccccc1 (centres unmarked) [2-(1-propoxyethoxy)ethylbenzene]
IC50 [2]: 190 µM
Inhibition(%) [2]: 61%

CCC(=CC[C@@H]1CC=C(C)C1(C)C)CO
% Earthy/Moss Odor Remaining [3, 5]: 85.20%
% Earthy/Moss Odor Remaining [3, 6]: 64.30%
% Earthy/Moss Odor [3]: 34.90%

CCCCCCCC=CC=O [dec-2-enal]
IC50 [2]: 262 µM
Inhibition(%) [2]: 40%

CC(C)=CCCC(C)=CCO [3,7-dimethylocta-2,6-dien-1-ol]
IC50 [1]: 190 µM
Inhibition(%) [1]: 18%

OCCc1ccccc1 [phenylethylol, 2-PHENYLETHANOL]
% Earthy/Moss Odor [3]: 47.50%

C=C1C2CCC(C2)C1(C)C (centres unmarked) [2,2-dimethyl-3-methylidenebicyclo[2.2.1]heptane]
IC50 [2]: 219 µM
Inhibition(%) [2]: 36%

CC(=O)OC1CCC(C(C)(C)C)CC1 (centres unmarked) [(4-{tert}-butylcyclohexyl) acetate]
IC50 [1]: 93.8 µM
Inhibition(%) [1]: 79%

CC(C)CCOCCc1ccccc1 [2-(3-methylbutoxy)ethylbenzene]
IC50 [2]: 126 µM
Inhibition(%) [2]: 22%

CC1C2CC(CC2C2CCCC(O)C2)C1(C)C (centres unmarked) [3-(5,5,6-trimethyl-2-bicyclo[2.2.1]heptanyl)cyclohexan-1-ol]
IC50 [2]: 100 µM
Inhibition(%) [2]: 29%

1-(2,6,6-trimethylcyclohexen-1-yl)hepta-1,6-dien-3-one; 1-(2,6,6-trimethylcyclohex-2-en-1-yl)hepta-1,6-dien-3-one
IC50 [1]: 35.9 µM
Inhibition(%) [1]: 49%
IC50 [4]: 100 µM
IC50 [2]: 49.1 µM
Inhibition(%) [2]: 66%

CC1(C)CCCC2(C)C1CCC1(C)OCCC12 (centres unmarked)
IC50 [1]: 101 µM
Inhibition(%) [1]: 105%
IC50 [2]: 27.1 µM
Inhibition(%) [2]: 78%

CC(=O)C(C)=CC1C(C)=CCCC1(C)C (centres unmarked) [3-methyl-4-(2,6,6-trimethylcyclohex-2-en-1-yl)but-3-en-2-one]
IC50 [1]: 120 µM
Inhibition(%) [1]: 37%
IC50 [2]: 110 µM
Inhibition(%) [2]: 58%

CC1=CCC(C=CC(C)C(C)O)C1(C)C (centres unmarked)
IC50 [2]: 76 µM
Inhibition(%) [2]: 33%

CC=CC(=O)C1=C(C)C=CCC1(C)C [1-(2,6,6-trimethylcyclohexa-1,3-dien-1-yl)but-2-en-1-one]
IC50 [2]: 129 µM
Inhibition(%) [2]: 35%

CC(=O)C=CC1=C(C)CCC(C)C1(C)C (centres unmarked) [4-(2,5,6,6-tetramethylcyclohexen-1-yl)but-3-en-2-one]
IC50 [1]: 72.7 µM
Inhibition(%) [1]: 23%

O=C1CCCCCCCCCCCC(=O)OCCO1 [1,4-dioxacycloheptadecane-5,17-dione]
IC50 [1]: 39.3 µM
Inhibition(%) [1]: 38%
IC50 [2]: 31.7 µM
Inhibition(%) [2]: 21%

CC(CCCC(C)(C)O)CC(O)n1ccc2ccccc21 (centres unmarked) [1-indol-1-yl-3,7-dimethyloctane-1,7-diol]
IC50 [1]: 175 µM
Inhibition(%) [1]: 46%
IC50 [2]: 201 µM
Inhibition(%) [2]: 46%

CC(CCO)CCc1ccccc1 (centres unmarked) [3-methyl-5-phenylpentan-1-ol]
IC50 [2]: 1100 µM
Inhibition(%) [2]: 37%

CC(=O)/C=C/C1C(C)=CCCC1(C)C (racemic) [(+−)-(3E)-4-(2,6,6-trimethyl-2-cyclohexen-1-yl)-3-buten-2-one]
IC50 [1]: 462 µM
Inhibition(%) [1]: 79%

CC(C)CC(=O)OCc1ccccc1 [benzyl 3-methylbutanoate]
IC50 [2]: 220 µM
Inhibition(%) [2]: 41%

C=C(C[C@H](C)CO)[C@H]1CC=C(C)C1(C)C
IC50 [1]: 54.6 µM
Inhibition(%) [1]: 27%
IC50 [2]: 36.6 µM
Inhibition(%) [2]: 33%

CC1=C[C@@H](C)[C@@H](C=O)CC1
% Earthy/Moss Odor Remaining [3, 5]: 80.60%
% Earthy/Moss Odor Remaining [3, 6]: 71.50%
% Earthy/Moss Odor [3]: 48.10%

CC1CCC2(O)C(C)(C)C3CCC2(C)C1C3 (centres unmarked)
IC50 [1]: 81 µM
Inhibition(%) [1]: 70%
IC50 [2]: 34.9 µM
Inhibition(%) [2]: 68%

CC1CCC2(O1)C(C)(C)CCCC2(C)O (centres unmarked)
IC50 [2]: 173 µM
Inhibition(%) [2]: 40%

CC(=O)OC1CC2CCC1(C)C2(C)C (centres unmarked)
IC50 [2]: 660 µM
Inhibition(%) [2]: 84%

CC(C)(C)Cc1cccnc1 [3-(2,2-dimethylpropyl)pyridine]
IC50 [1]: 117 µM
Inhibition(%) [1]: 25%

CC(C)CC(O)Cc1ccccc1 (centres unmarked) [4-methyl-1-phenylpentan-2-ol]
IC50 [2]: 517 µM
Inhibition(%) [2]: 36%

CCOC(=O)c1ccccc1C(=O)OCC [diethyl benzene-1,2-dicarboxylate]
IC50 [2]: 1580 µM
Inhibition(%) [2]: 32%
